Reference: patent US7923465B2, “Cannabinoid receptor ligands, pharmaceutical compositions containing them, and process for their preparation” (priority 2005, dated 2011)
Where two headings read alike, the source gives them in different places.

How the values were obtained:
hCB2 = hCB2 (Homo sapiens, UniProt P34972); experiment: In vitro binding assay using hCB2-CHO membranes, [3H]-CP-55,940 displacement (Protocol IV); parameters: expressed in transfected cells; host or cells: CHO (hCB2-CHO, generated in-house); conditions: 1 h, read-out: % Displacement Protocol IV
hCB2, sequence (P34972 whole entry): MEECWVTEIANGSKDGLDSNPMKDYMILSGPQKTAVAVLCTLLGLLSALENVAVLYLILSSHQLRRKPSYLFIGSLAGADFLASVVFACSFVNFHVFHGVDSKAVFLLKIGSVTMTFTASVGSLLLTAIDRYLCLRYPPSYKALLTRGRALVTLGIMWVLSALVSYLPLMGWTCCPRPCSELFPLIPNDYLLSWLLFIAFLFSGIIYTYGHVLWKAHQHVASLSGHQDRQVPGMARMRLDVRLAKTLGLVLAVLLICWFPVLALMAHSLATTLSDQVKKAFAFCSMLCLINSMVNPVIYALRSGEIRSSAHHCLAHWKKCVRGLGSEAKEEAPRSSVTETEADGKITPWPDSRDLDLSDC
Procedure: IV. Protocol for In Vitro Assay Using hCB2-CHO Membranes:
In this assay, [^3H]-CP-55,940 was used as the radioligand to bind human CB2 receptor expressed on the membranes from CHO cells (hCB2-CHO cell line was generated in-house) which can be displaced by unlabeled ligands having affinity to the CB2 receptor.
The assay was performed according to the modified method of Ross et al., 1999 (Br. J. Pharmacol. 128, 735-743). The reaction was set up in a total volume of 200 μl in PEI (0.2%) precoated Millipore GFB filter plates. 1 mM stocks of test compounds were prepared in DMSO and tested at a final concentration of 300 nM. The non-specific binding was determined by 0.5 μM CP-55, 940. The total reaction mixture contained Tris-BSA buffer (50 mM Tris, 5 mM MgCl2, 1 mM EDTA, pH 7.4 with 0.1% BSA), unlabelled CP-55, 940 (0.5 μM) or test samples, [^3H]-CP-55, 940 (0.75 nM) and 25-50 μg of human CB2 receptor preparation. The assay mixture (with or without the test compound) was incubated at 30° C. for 1 hour. The reaction was stopped by rapid filtration under vacuum and the radioactivity on the filters was measured by liquid scintillation counting.
The percent (%) displacement by a test ligand was calculated by comparing the specific bound values.

[1] = hCB2-CHO membranes, [3H]-CP-55,940 displacement

| SMILES | melting point [°C] | inhibition at 0.3 µM (hCB2) [%] | inhibition at 0.3 µM (hCB2; [1]) [%] |
| --- | --- | --- | --- |
| O=C(NCc1ccc(F)cc1F)c1nn(-c2ccc(Cl)cc2)c2c1C1CC3CC(C1)CC2C3 [Example 114, N(7)-(2,4-Difluorobenzyl)-5-(4-chlorophenyl)-5,6-diazatetracyclo[7.3.1.1^3,11.0^4,8]tetradeca-4(8),6-diene-7-carboxamide] | 185 | 31.7 | – |
| CC[C@H](NC(=O)c1nn(-c2ccc(F)cc2F)c2c1C1CCC2C1)c1ccccc1 (stereo partly drawn) [Example 300, N5-[(1S)-1-Phenylpropyl]-3-(2,4-difluorophenyl)-3,4-diazatricyclo[5.2.1.0^2,6]deca-2(6),4-diene-5-carboxamide] | 100 to 103 | 90.1 | – |
| O=C(NCc1ccncc1)c1nn(-c2ccc(Cl)cc2)c2c1C1CC3CC(C1)CC2C3 [Example 105, N(7)-(4-Pyridylmethyl)-5-(4-chlorophenyl)-5,6-diazatetracyclo[7.3.1.1^3,11.0^4,8]tetradeca-4(8),6-diene-7-carboxamide] | 167 to 168 | – | 22.4 |
| C[C@@H](NC(=O)c1nn(-c2ccc(F)cc2F)c2c1C1CC3CC(C1)CC2C3)c1ccccc1 [Example 147, N(7)-(R-1-phenylethyl)-5-(2,4-difluorophenyl)-5,6-diazatetracyclo[7.3.1.1^3,11.0^4,8]tetradeca-4(8),6-diene-7-carboxamide] | 123 to 128 | 37.1 | – |
| CC(C)(NC(=O)c1nn(-c2ccc(F)cc2)c2c1C1CC3CC(C1)CC2C3)c1ccccc1 [Example 157, N(7)-(1-Methyl-1-phenylethyl)-5-(4-fluorophenyl)-5,6-diazatetracyclo[7.3.1.1^3,11.0^4,8]tetradeca-4(8),6-diene-7-carboxamide] | 180 to 182 | 88.5 | – |
| O=C(NC1(c2ccccc2)CC1)c1nn(-c2ccc(F)cc2F)c2c1C1CCC2C1 (centres unmarked) [Example 308, N5-(1-phenylcyclopropyl)-3-(2,4-difluorophenyl)-3,4-diazatricyclo[5.2.1.0^2,6]deca-2(6),4-diene-5-carboxamide] | 90 | 86.6 | – |
| COc1ccc(-n2nc(C(=O)NN3CCCCC3)c3c2C2CC4CC(CC3C4)C2)cc1 [Example 163, N(7)-Piperidino-5-(4-methoxyphenyl)-5,6-diazatetracyclo[7.3.1.1^3,11.0^4,8]tetradeca-4(8),6-diene-7-carboxamide] | 156 | – | 14.5 |
| CC12CCC(C1)C(C)(C)C2NC(=O)c1nn(-c2ccc(F)cc2)c2c1C1CC3CC(C1)CC2C3 (centres unmarked) [Example 159, N7-(1,3,3-Trimethylbicyclo[2.2.1]hept-2-yl)-5-(4-fluorophenyl)-5,6-diazatetracyclo[7.3.1.1^3,11.0^4,8]tetradeca-4(8),6-diene-7-carboxamide] | 139 to 141 | 97.7 | – |
| O=C(NC1CC1)c1nn(-c2ccc(F)cc2F)c2c1C1CCC2C1 (centres unmarked) [Example 317, N(3)-Cyclopropyl-1-(2,4-difluorophenyl)-4,5,6,7-tetrahydro-1H-4,7-methano-indazole-3-carboxamide] | 59 to 61 | 16.9 | – |
| CC12CCC(c3c(C(=O)NNc4ncccc4Cl)nn(-c4ccc(Cl)cc4Cl)c31)C2(C)C (centres unmarked) [Example 404, N(3)-[(3-chloropyridin-2-yl)amino]-1-(2,4-Dichlorophenyl)-7,8,8-trimethyl-4,5,6,7-tetrahydro-1H-4,7-methano-indazole-3-carboxamide] | 142 to 145 | – | 23.8 |
